Data set [1] concerns mock-infected MT-2 cell.
Description: (§1) HIV-1IIIB Replication Inhibition Assay in MT-2 Lymphocytes. The evaluation of HIV-1 inhibition was carried out as follows. […] Control wells containing virus and cells only (no drug) and cells only (no virus or drug) were also prepared. A second identical set of samples were added to cells under the same conditions without virus (mock infection) for cytotoxicity determinations (CC50 defined below). […] On day 4 PI, the assay was terminated and culture supernatants were harvested for p24 antigen ELISA analysis. The compound cytotoxicity was determined by XTT using the mock-infected sample wells.
In data set [2] the test system is mock-infected MT-2 cell. Nature of the data set: Cytotoxicity in mock-infected MT-2 cells (XTT). To be noted: concentration that inhibits mock-infected MT-2 cell growth by 50%.
Description: as §1
A further data set has as its system HIV-1IIIB. Nature of the data set: HIV-1IIIB replication inhibition assay in MT-2 lymphocytes (p24 antigen ELISA). Type of data set: cell-based. To be noted: HIV-1IIIB infected MT-2 cell lines; concentration that inhibits HIV-1IIIB replication by 50%; NS: no suppression at concentrations below the CC50. A general note: In an ELISA, binding on a coated surface is turned into a signal by an enzyme label.

A word on the CC50: it is the concentration at which the toxic effect on the cells reaches its halfway point. Lower therefore signals greater toxicity to the cells. The EC50 is the concentration needed to bring the measured effect to its halfway point. Low readings indicate an effect from little substance, high ones a need for much substance.

Where two headings read alike, the source gives them in different places.

Description for HIV-1IIIB: as §1

Turning to `Cc1cn([C@H]2C[C@H](N=[N+]=[N-])[C@@H](CO)O2)c(=O)[nH]c1=O` [AZT, reference compound], in the data set with mock-infected MT-2 cell [1], the CC50 was found to be 1870 µM. That is a millimolar value.

`C=C(COCC)[C@@H]1CC[C@]2(C(=O)N[C@@H](CC(C)C)C(=O)O)CC[C@]3(C)[C@H](CC[C@@H]4[C@@]5(C)CC[C@H](O)C(C)(C)[C@@H]5CC[C@]43C)[C@@H]12` [Compound 10, N-[3β-Hydroxy-30-ethoxy-lup-20(29)-en-28-oyl]-leucine] yielded a 50% cytotoxic concentration (CC50) with mock-infected MT-2 cell [2] of 40.7 µM. In addition, the EC50 in the data set with HIV-1IIIB was > 16.7 µM.

As to `C=C(COCCC)[C@@H]1CC[C@]2(C(=O)N[C@@H](CC(C)C)C(=O)O)CC[C@]3(C)[C@H](CC[C@@H]4[C@@]5(C)CC[C@H](O)C(C)(C)[C@@H]5CC[C@]43C)[C@@H]12` [Compound 11, N-[3β-Hydroxy-30-propoxy-lup-20(29)-en-28-oyl]-leucine], the CC50 in the data set with mock-infected MT-2 cell [2] came out at 25.3 µM. In addition, the EC50 in the data set on HIV-1IIIB was > 16.7 µM.

In the case of `C=C(COCCCC)[C@@H]1CC[C@]2(C(=O)N[C@@H](CC(C)C)C(=O)O)CC[C@]3(C)[C@H](CC[C@@H]4[C@@]5(C)CC[C@H](O)C(C)(C)[C@@H]5CC[C@]43C)[C@@H]12` [Compound 12, N-[3β-Hydroxy-30-butoxy-lup-20(29)-en-28-oyl]-leucine], in the data set on mock-infected MT-2 cell [2], the midpoint of cytotoxicity, the CC50, lay at 24.9 µM. Besides, in the data set on HIV-1IIIB, the EC50 was > 16.7 µM.

`C=C(COCCc1ccccc1)[C@@H]1CC[C@]2(C(=O)N[C@@H](CC(C)C)C(=O)O)CC[C@]3(C)[C@H](CC[C@@H]4[C@@]5(C)CC[C@H](O)C(C)(C)[C@@H]5CC[C@]43C)[C@@H]12` [Compound 13, N-[3β-Hydroxy-30-phenethoxy-lup-20(29)-en-28-oyl]-leucine] displayed a CC50 with mock-infected MT-2 cell [2] of 21.7 µM. Further, the EC50 with HIV-1IIIB was > 16.7 µM.

With `C=C(COCCc1ccc(OC)cc1)[C@@H]1CC[C@]2(C(=O)N[C@@H](CC(C)C)C(=O)O)CC[C@]3(C)[C@H](CC[C@@H]4[C@@]5(C)CC[C@H](O)C(C)(C)[C@@H]5CC[C@]43C)[C@@H]12` [Compound 14, N-[3β-Hydroxy-30-(4′-methoxyphenethoxy)-lup-20(29)-en-28-oyl]-leucine], the EC50 in the data set with HIV-1IIIB is > 16.7 µM. In the data set with mock-infected MT-2 cell [1], this compound displayed a cytotoxic concentration (CC50) of 16.7 µM.

Regarding `C=C(COCCc1ccc(F)cc1)[C@@H]1CC[C@]2(C(=O)N[C@@H](CC(C)C)C(=O)O)CC[C@]3(C)[C@H](CC[C@@H]4[C@@]5(C)CC[C@H](O)C(C)(C)[C@@H]5CC[C@]43C)[C@H]12` [Compound 15, N-[3β-Hydroxy-30-(4% fluorophenethoxy)-lup-20(29)-en-28-oyl]-leucine], the EC50 in the data set on HIV-1IIIB was > 16.7 µM. Moreover, the cytotoxic concentration (CC50) with mock-infected MT-2 cell [1] amounted to 24.4 µM.

`C=C(COCCc1ccc(Br)cc1)[C@@H]1CC[C@]2(C(=O)N[C@@H](CC(C)C)C(=O)O)CC[C@]3(C)[C@H](CC[C@@H]4[C@@]5(C)CC[C@H](O)C(C)(C)[C@@H]5CC[C@]43C)[C@@H]12` [Compound 16, N-[3β-Hydroxy-30-(4′-bromophenethoxy)-lup-20(29)-en-28-oyl]-leucine]: the EC50 with HIV-1IIIB was > 16.7 µM. In addition, in the data set with mock-infected MT-2 cell [1], it took 20.8 µM to reach half-maximal cytotoxicity (CC50).

`C=C(COCCc1ccc(Cl)cc1)[C@@H]1CC[C@]2(C(=O)N[C@@H](CC(C)C)C(=O)O)CC[C@]3(C)[C@H](CC[C@@H]4[C@@]5(C)CC[C@H](O)C(C)(C)[C@@H]5CC[C@]43C)[C@@H]12` [Compound 17, N-[3β-Hydroxy-30-(4′-chlorophenethoxy)-lup-20(29)-en-28-oyl]-leucine] yielded an EC50 in the data set on HIV-1IIIB of 27.8 µM. For the same compound, in the data set on mock-infected MT-2 cell [1], it took 34.6 µM to reach half-maximal cytotoxicity (CC50).

Take `C=C(CN1CCOCC1)C1CCC2(C(=O)NC(CC(C)C)C(=O)O)CCC3(C)C(CCC4C5(C)CCC(O)C(C)(C)C5CCC43C)C12` (stereo not drawn) [Compound 18, N-[3β-Hydroxy-30-morpholino-lup-20(29)-en-28-oyl]-leucine]: in the data set on mock-infected MT-2 cell [2], half-maximal cytotoxicity (CC50) was put at 27.5 µM. In addition, the EC50 in the data set on HIV-1IIIB is > 16.7 µM.

In the data set with HIV-1IIIB, `C=C(COCCN1CCOCC1)[C@@H]1CC[C@]2(C(=O)N[C@@H](CC(C)C)C(=O)O)CC[C@]3(C)[C@H](CC[C@@H]4[C@@]5(C)CC[C@H](O)C(C)(C)[C@@H]5CC[C@]43C)[C@@H]12` [Compound 19, N-[3β-Hydroxy-30-(2′-morpholinoethoxy)-lup-20(29)-en-28-oyl]-leucine] returned an EC50 of 26.6 µM. In the data set on mock-infected MT-2 cell [1], this compound gave a CC50 of 35.8 µM.

In the data set on mock-infected MT-2 cell [1], `C=C(C)[C@@H]1CC[C@]2(C(=O)N[C@@H](CC(C)C)C(=O)O)CC[C@]3(C)[C@H](CC[C@@H]4[C@@]5(C)CC[C@H](O)C(C)(C)[C@@H]5CC[C@]43C)[C@@H]12` [Compound 22, N-[3β-Hydroxy-lup-20(29)-en-28-oyl]-leucine] gave a CC50 of 29.8 µM.

`C=C(CBr)[C@@H]1CC[C@]2(C(=O)N[C@@H](CC(C)C)C(=O)O)CC[C@]3(C)[C@H](CC[C@@H]4[C@@]5(C)CC[C@H](O)C(C)(C)[C@@H]5CC[C@]43C)[C@@H]12` [Compound 24, N-[3β-Hydroxy-30-bromo-lup-20(29)-en-28-oyl]-leucine] had a CC50 in the data set with mock-infected MT-2 cell [2] of 26.8 µM. For the same compound, the EC50 in the data set with HIV-1IIIB is > 16.7 µM.

In turn, `C=C(CBr)[C@@H]1CC[C@]2(C(=O)NCCCCCCCC(=O)O)CC[C@]3(C)[C@H](CC[C@@H]4[C@@]5(C)CC[C@H](O)C(C)(C)[C@@H]5CC[C@]43C)[C@@H]12` [Compound 25, N-[3β-Hydroxy-30-bromo-lup-20(29)-en-28-oyl]-8-aminooctanoic acid] showed an EC50 in the data set on HIV-1IIIB of 2.3 µM. The compound further gave a CC50 in the data set with mock-infected MT-2 cell [1] of 36.9 µM.

In the case of `C=C(CO)[C@@H]1CC[C@]2(C(=O)N[C@@H](CC(C)C)C(=O)O)CC[C@]3(C)[C@H](CC[C@@H]4[C@@]5(C)CC[C@H](O)C(C)(C)[C@@H]5CC[C@]43C)[C@@H]12` [Compound 28, N-[3β,30-Dihydroxy-lup-20(29)-en-28-oyl]-leucine], in the data set with mock-infected MT-2 cell [2], half-maximal cytotoxicity (CC50) was put at 30.7 µM. The EC50 in the data set with HIV-1IIIB was > 16.7 µM.

Turning to `C=C(CO)[C@@H]1CC[C@]2(C(=O)NCCCCCCCC(=O)O)CC[C@]3(C)[C@H](CC[C@@H]4[C@@]5(C)CC[C@H](O)C(C)(C)[C@@H]5CC[C@]43C)[C@@H]12` [Compound 29, N-[3β,30-Dihydroxy-lup-20(29)-en-28-oyl]-8-aminooctanoic acid], it took 14.8 µM to reach a half-maximal effect with HIV-1IIIB (EC50). For the same compound, in the data set with mock-infected MT-2 cell [1], it took 40.7 µM to reach half-maximal cytotoxicity (CC50).

Turning to `C=C(C)[C@@H]1CC[C@]2(C(=O)N3CCC(CCCC(=O)O)CC3)CC[C@]3(C)[C@H](CC[C@@H]4[C@@]5(C)CC[C@H](OC(=O)CC(C)(C)C(=O)O)C(C)(C)[C@@H]5CC[C@]43C)[C@@H]12` [Compound 39, N-[3β-O-(3′,3′-Dimethylsuccinyl)-lup-20(29)-en-28-oyl]-4-piperidine butyric acid], the CC50 in the data set with mock-infected MT-2 cell [2] came out at 20.8 µM. This compound also showed an EC50 with HIV-1IIIB of 0.015 µM.

Consider `C=C(C)[C@@H]1CC[C@]2(C(=O)N3CCC(CCCC(=O)O)CC3)CC[C@]3(C)[C@H](CC[C@@H]4[C@@]5(C)CC[C@H](OC(=O)CCC(C)(C)C(=O)O)C(C)(C)[C@@H]5CC[C@]43C)[C@@H]12` [Compound 40, N-[3β-O-(4′,4′-Dimethylglutaryl)-lup-20(29)-en-28-oyl]-4-piperidine butyric acid], for which the CC50 in the data set with mock-infected MT-2 cell [2] turned out to be 33.2 µM. This compound also had an EC50 in the data set on HIV-1IIIB of 0.23 µM.

Source of the values: patent publication US20120101098A1, “3,28-DISUBSTITUTED BETULINIC ACID DERIVATIVES AS ANTI-HIV AGENTS” (priority 2009, published 2012).
